“Also recorded” adds a separate entry of the source. Read-outs that look alike come from different tables or passages of the source.

Series [1] deals with T cell lymphoma. The format is in vivo. Here is the method:
Each of these patients was also treated with folic acid (1 mg/m^2 daily starting 1 week prior to treatment with PDX) and B12 (1 mg/m^2 monthly) supplementation.

Another series has as its system murine L1210 cell line. Conditions: cited from earlier work.
Series [2] deals with T1, dihydrofolate reductase (DHFR) (Mus musculus, UniProt P00375).
T1 sequence (P00375 1-187): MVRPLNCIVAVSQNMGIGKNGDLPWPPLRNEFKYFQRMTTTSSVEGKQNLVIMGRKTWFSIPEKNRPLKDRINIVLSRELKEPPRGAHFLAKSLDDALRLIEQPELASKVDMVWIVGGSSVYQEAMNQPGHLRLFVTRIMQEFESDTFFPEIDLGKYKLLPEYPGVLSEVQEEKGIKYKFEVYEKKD
The conditions noted are these: relative to L1210 growth inhibition; cited from earlier work.

The subject of series [3] is human tumors (mammary, lung) xenograft. Conditions: cited from earlier work.
The subject of another series is mesothelioma. The conditions noted are these: cited from earlier work.
Series [4] deals with T cell lymphoma. Briefly: Prior treatment history of the study patients. Conditions: Patient 2: Lymphoblastic Lymphoma, Precursor T-cell; MTX May 2002 through February 2004. The format is in vivo, human.
Where [5] appears, read: Patient 2: Lymphoblastic Lymphoma, Precursor T-cell, Stage IV, PDX 30 mg/m^2 x 3 weeks every 4 weeks, 3 cycles.
The mark [6] stands for this setting: Patient 3: HTLV Associated T-cell Lymphoma, PDX 30 mg/m^2 weekly x 3 every 4 weeks x 2 cycles.
[7] abbreviates: Patient 4: Panniculitic T-cell Lymphoma, PDX 30 mg/m^2 weekly x 4.

`C#CCC(Cc1cnc2nc(N)nc(N)c2n1)c1ccc(C(=O)N[C@@H](CCC(=O)O)C(=O)O)cc1` (stereo partly drawn) [PDX, 10-Propargyl-10-deazaaminopterin]: the “Overall response of the patients with T-cell lymphoma treated with PDX” value in the series with T cell lymphoma [1] (4 patients, PET imaging) is recorded as “all four have met criteria for complete remission”. In addition, the Toxicities entry in the series on T cell lymphoma [1] (Patient 1: Peripheral T-cell Lymphoma, Stage IV, PDX 135 mg/m^2 x 1 dose) was “Grade 3 stomatitis; neutropenia grade 3; sepsis”; in the series on T cell lymphoma [1] (setting [5]), “None”; with T cell lymphoma [1] (setting [6]), “None”; in the series with T cell lymphoma [1] (setting [7]) it was “None”. Further, the Response result with T cell lymphoma [1] (Patient 1: Peripheral T-cell Lymphoma, Stage IV, PDX 135 mg/m^2 x 1 dose, folic acid and B12 supplementation) is “Essentially complete remission by PET scan”; with T cell lymphoma [1] (setting [5]) it was “Complete remission by PET and CT scans”; in the series on T cell lymphoma [1] (setting [6]), “Complete remission”; with T cell lymphoma [1] (setting [7]), “Clinical complete remission by PET”. Besides, the Inhibition of growth result with murine L1210 cell line is given as “inhibitor of growth”. Also, the “Inhibition of the enzyme” value in series [2] was “to a lesser extent”. Further, in series [3] (highly purified PDX compositions), the “Efficacy against human tumors compared with reference antifolates” value is “far superior to methotrexate; also recorded: superior to edatrexate”. Further, in series [3] (several weeks after the cessation of therapy), the “Tumor growth after cessation of therapy” value is given as “no evidence of tumor growth”. In addition, in the series on mesothelioma, the Efficacy against mesothelioma entry was “effective against mesothelioma”.
`CN(Cc1cnc2nc(N)nc(N)c2n1)c1ccc(C(=O)N[C@@H](CCC(=O)O)C(=O)O)cc1` [methotrexate]: in the series with T cell lymphoma [4], the “Response to prior treatment” value is recorded as “essentially methotrexate resistant disease”.

(Values after patent US7622470B2, “Treatment of T-cell lymphoma using 10-propargyl-10-deazaaminopterin” (Sloan-Kettering Institute for Cancer Research, priority 2004, dated 2009).)
